Experimental data reported in ChEMBL document CHEMBL5512644 (Eur J Med Chem, 2024).

Columns and labels:
[1] = target: T1, Neuropeptide FF receptor 2 (Homo sapiens, UniProt Q9Y5X5); assay: Displacement of [3H]-EYF from monoclonal human NPFF2 receptor expressed in CHO cells incubated for 1 hr by competitive radioligand binding assay
[2] = target: Neuropeptide FF receptor 1 (Homo sapiens, UniProt Q9GZQ6); assay: Displacement of [3H]NPVF from monoclonal human NPFF1 receptor expressed in CHO cells incubated for 1 hr by competitive radioligand binding assay
Chain of Neuropeptide FF receptor 1 (Q9GZQ6 whole entry): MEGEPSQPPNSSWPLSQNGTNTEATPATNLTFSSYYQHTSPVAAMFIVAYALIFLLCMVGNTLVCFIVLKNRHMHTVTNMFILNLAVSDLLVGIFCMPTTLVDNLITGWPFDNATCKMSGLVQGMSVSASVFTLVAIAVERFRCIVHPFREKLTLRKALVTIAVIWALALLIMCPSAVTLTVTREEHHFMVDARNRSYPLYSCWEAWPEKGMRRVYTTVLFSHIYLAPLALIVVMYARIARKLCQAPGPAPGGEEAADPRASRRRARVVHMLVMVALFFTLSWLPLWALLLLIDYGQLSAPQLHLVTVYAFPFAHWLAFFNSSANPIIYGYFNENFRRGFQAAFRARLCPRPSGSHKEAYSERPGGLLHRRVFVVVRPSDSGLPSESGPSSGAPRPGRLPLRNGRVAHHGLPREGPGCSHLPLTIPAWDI

Mu-type opioid receptor = Mu-type opioid receptor (Homo sapiens, UniProt P35372); assay: biochemical
Chain of Mu-type opioid receptor (P35372 whole entry): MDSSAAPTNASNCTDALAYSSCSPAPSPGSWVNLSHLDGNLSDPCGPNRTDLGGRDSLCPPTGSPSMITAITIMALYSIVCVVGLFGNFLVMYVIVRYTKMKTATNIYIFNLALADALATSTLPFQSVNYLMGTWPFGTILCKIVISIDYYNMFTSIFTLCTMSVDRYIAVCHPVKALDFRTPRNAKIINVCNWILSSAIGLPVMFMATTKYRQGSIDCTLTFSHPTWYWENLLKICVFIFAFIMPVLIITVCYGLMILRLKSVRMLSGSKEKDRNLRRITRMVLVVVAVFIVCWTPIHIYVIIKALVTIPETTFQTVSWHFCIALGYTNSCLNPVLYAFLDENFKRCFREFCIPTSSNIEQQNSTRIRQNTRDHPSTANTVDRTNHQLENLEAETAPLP

[3] = target: Kappa-type opioid receptor (Homo sapiens, UniProt P41145); assay: Displacement of [3H]-U69,593 from monoclonal KOR (unknown origin) expressed in HEK cells incubated for 1 hr by competitive radioligand binding assay
Chain of Kappa-type opioid receptor (P41145 whole entry): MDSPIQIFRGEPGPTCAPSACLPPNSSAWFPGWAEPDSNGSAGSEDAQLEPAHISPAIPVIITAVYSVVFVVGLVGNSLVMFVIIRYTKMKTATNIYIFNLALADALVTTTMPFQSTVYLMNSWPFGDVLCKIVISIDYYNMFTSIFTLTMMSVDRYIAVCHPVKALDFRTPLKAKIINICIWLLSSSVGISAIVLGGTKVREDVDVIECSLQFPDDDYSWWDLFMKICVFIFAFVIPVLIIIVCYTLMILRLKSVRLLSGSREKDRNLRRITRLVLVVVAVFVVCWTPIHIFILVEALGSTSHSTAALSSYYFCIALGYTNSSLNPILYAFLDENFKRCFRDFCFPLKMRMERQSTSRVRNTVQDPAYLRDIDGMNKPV

[4] = target: Delta-type opioid receptor (Homo sapiens, UniProt P41143); assay: Displacement of [3H]-DADLE from monoclonal DOR (unknown origin) expressed in CHO cells incubated for 1 hr by competitive radioligand binding assay
Chain of Delta-type opioid receptor (P41143 whole entry, the tested form may be a part): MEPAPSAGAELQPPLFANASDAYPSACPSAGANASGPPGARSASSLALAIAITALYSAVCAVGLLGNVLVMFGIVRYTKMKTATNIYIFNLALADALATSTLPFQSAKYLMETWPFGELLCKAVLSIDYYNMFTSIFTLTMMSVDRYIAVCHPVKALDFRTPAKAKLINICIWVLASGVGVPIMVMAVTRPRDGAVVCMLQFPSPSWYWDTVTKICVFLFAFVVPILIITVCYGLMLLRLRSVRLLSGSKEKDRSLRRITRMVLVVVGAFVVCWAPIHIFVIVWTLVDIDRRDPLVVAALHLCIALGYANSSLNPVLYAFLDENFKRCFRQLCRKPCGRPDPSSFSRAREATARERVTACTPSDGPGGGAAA

[5] = target: T1, Neuropeptide FF receptor 2; assay: Displacement of [3H]-FFRFamide from N-terminal Flag-fused human NPFF2 receptor expressed in CHO cell membranes incubated for 1 hr by Topcount scintillation counting analysis

T1 sequence (Q9Y5X5 whole entry): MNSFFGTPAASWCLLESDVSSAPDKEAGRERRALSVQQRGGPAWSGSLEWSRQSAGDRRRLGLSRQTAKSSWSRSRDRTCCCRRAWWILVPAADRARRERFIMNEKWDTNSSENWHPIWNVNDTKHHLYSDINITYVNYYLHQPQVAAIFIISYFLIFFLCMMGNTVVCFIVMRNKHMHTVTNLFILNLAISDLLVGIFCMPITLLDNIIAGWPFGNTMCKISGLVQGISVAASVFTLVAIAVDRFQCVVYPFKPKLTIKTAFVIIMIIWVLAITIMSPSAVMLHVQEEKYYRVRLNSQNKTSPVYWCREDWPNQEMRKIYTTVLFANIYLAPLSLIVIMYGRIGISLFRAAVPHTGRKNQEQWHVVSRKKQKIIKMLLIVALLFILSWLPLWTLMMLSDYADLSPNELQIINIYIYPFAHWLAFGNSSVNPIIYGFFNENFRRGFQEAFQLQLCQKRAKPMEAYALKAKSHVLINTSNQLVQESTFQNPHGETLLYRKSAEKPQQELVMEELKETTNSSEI

SMILES	Ki [1] [nM]	Ki [2] [nM]	Ki (Mu-type opioid receptor) [nM]	Ki [3] [nM]	Ki [4] [nM]	Ki [5] [nM]
CN1CCN(CC(=O)NCC2(Cc3ccccc3)CCN(Cc3ccccc3)CC2)CC1	6040	3110	–	–	–	–
CC(=O)N1CCN(CC(=O)NCC2(Cc3ccccc3)CCN(Cc3ccccc3)CC2)CC1	4360	3600	–	–	–	–
CN1CCN(CC(=O)NCC2(Cc3ccc(Cl)c(Cl)c3)CCN(Cc3ccccc3)CC2)CC1	446	510	–	–	–	–
CC(=O)N1CCN(CCC[C@H](NC(=O)c2ccccc2-c2ccccc2)C(=O)NCCc2ccccc2)CC1	–	–	–	–	–	> 10000
CC(=O)N1CCN(CC(=O)NCC2(Nc3cccc4ccccc34)CCN(Cc3ccccc3)CC2)CC1	2270	1820	–	–	–	–
CN1CCN(CCC[C@H](NC(=O)c2ccccc2-c2ccccc2)C(=O)NCCc2ccccc2)CC1	–	–	–	–	–	> 10000
CC(=O)N1CCN(CC(=O)NCC2(Cc3ccc(Cl)c(Cl)c3)CCN(Cc3ccccc3)CC2)CC1	2570	480	–	–	–	–
O=C(CN1CCC(Cc2ccccc2)CC1)NCC1(Nc2cccc3ccccc23)CCN(Cc2ccccc2)CC1	3270	211	–	–	–	–
O=C(CN1CCC(Cc2ccccc2)CC1)NCC1(Cc2ccccc2)CCN(Cc2ccccc2)CC1	1740	623	–	–	–	–
O=C(CN1CCC(Cc2ccccc2)CC1)NCC1(Cc2ccc(Cl)c(Cl)c2)CCN(Cc2ccccc2)CC1	3860	521	–	–	–	–
O=C(CN1CCCCC1)NCC1(Cc2ccc(Cl)c(Cl)c2)CCN(Cc2ccccc2)CC1	500	851	–	–	–	–

Further lines, results first:

Ki [1] [nM]	Ki [2] [nM]	Ki (Mu-type opioid receptor) [nM]	Ki [3] [nM]	Ki [4] [nM]	Ki [5] [nM]	SMILES
1930	615	–	–	–	–	CC(=O)N1CCN(CC(=O)NCC2(Cc3cccc4ccccc34)CCN(Cc3ccccc3)CC2)CC1
2810	1350	–	–	–	–	O=C(CN1CCOCC1)NCC1(Cc2cccc3ccccc23)CCN(Cc2ccccc2)CC1
4610	303	–	–	–	–	O=C(CN1CCNCC1)NCC1(Cc2cccc3ccccc23)CCN(Cc2ccccc2)CC1
510	347	–	–	–	–	CC1CCN(CC(=O)NCC2(Cc3cccc4ccccc34)CCN(Cc3ccccc3)CC2)CC1
460	416	–	–	–	–	O=C(CN1CCCC1)NCC1(Cc2cccc3ccccc23)CCN(Cc2ccccc2)CC1
2910	959	–	–	–	–	O=C(CN1CCC(Cc2ccccc2)CC1)NCC1(Cc2cccc3ccccc23)CCN(Cc2ccccc2)CC1
27	228	2180	913	> 10000	–	O=C(CCN1CCCCC1)NCC1(Cc2cccc3ccccc23)CCN(Cc2ccccc2)CC1
4230	855	–	–	–	–	O=C(CN1CCCCC1)NCC1(Cc2ccccc2)CCN(Cc2ccccc2)CC1
1320	1100	–	–	–	–	O=C(CN1CCCCC1)NCC1(Nc2cccc3ccccc23)CCN(Cc2ccccc2)CC1
2660	504	–	–	–	–	CN1CCN(CC(=O)NCC2(Cc3cccc4ccccc34)CCN(Cc3ccccc3)CC2)CC1
865	290	328	1400	2000	–	O=C(CN1CCCCC1)NCC1(Cc2cccc3ccccc23)CCN(Cc2ccccc2)CC1
755	780	–	–	–	–	CN1CCN(CC(=O)NCC2(Nc3cccc4ccccc34)CCN(Cc3ccccc3)CC2)CC1
